Test system: P2 synaptosomal fraction from rat brain cortex
Experiment: glutamate-induced uptake of 45Ca2+ isotope into synaptosomes
Format: cell-based
Excerpt: Neuroprotective action of new compounds was studied in P2 synaptosomal fraction from rat brain cortex. 5-amino-3-(2-nitroxypropyl)-1,2,4-thiadiazole derivatives were studied in the test on glutamate-induced uptake of ^45Ca^2+ isotope into synaptosomes.

In the case of `CC(Cc1nsc(N2CCN(c3ccccn3)CC2)n1)O[N+](=O)[O-]` (centres unmarked) [1-[3-(2-Nitroxypropyl)-[1,2,4]-thiadiazol-5-yl]-4-pyridin-2-yl-piperazine], the IC50 (glutamate-induced uptake of ^45Ca^2+ into synaptosomes) is reported as 16.6 µM and the inhibition at 100 µM (glutamate-induced uptake, concentration of 100 µM, read-out: inhibition of the uptake of ^45Ca^2+ into synaptosomes vs. a control) is reported as 98%.
